31 molecules from US6573274B1, “Sulfonamide compounds and uses thereof as medicines” (Fujisawa Pharmaceutical Co. Ltd., priority 1998, dated 2003) can be followed below.

Where a name gives a salt, the structure may show the parent alone.

`CCCCCS(=O)(=O)NC(=O)c1ccc2nc(C)n(Cc3ccc(OCCC)cc3Cl)c2n1` [Example 12, 3-(2-chloro-4-(1-propoxy)benzyl)-2-methyl-5-(1-pentanesulfonylcarbamoyl)-3H-imidazo[4,5-b]pyridine] registered a melting point of 131 to 134 °C.

For `CCC/C=C/S(=O)(=O)NC(=O)c1ccc2nc(C)n(Cc3ncc(NC(=O)OC(C)C)cc3Cl)c2n1` [Example 136, 3-[(5-(N-(isopropoxycarbonyl)amino)-3-chloropyridin-2-yl)methyl]-2-methyl-5-((E)-1-penten-1-ylsulfonylcarbamoyl)-3H-imidazo[4,5-b]pyridine], the melting point is 242 to 244 °C.

Turning to `CCCCS(=O)(=O)NC(=O)c1ccc2nc(C)n(Cc3ccc(OCC)cc3Cl)c2n1` [Example 9, 5-(1-butanesulfonylcarbamoyl)-3-(2-chloro-4-ethoxybenzyl)-2-methyl-3H-imidazo[4,5-b]pyridine], the melting point fell in the range of 151 to 152 °C.

`CCCCCS(=O)(=O)NC(=O)c1ccc2nc(C)n(Cc3ccc(N(C)C(=O)OCCC)cc3Cl)c2n1` [Example 95, 3-(2-chloro-4-(N-methyl-N-(1-propoxycarbonyl)amino)benzyl)-2-methyl-5-(1-pentanesulfonylcarbamoyl)-3H-imidazo[4,5-b]pyridine] had a melting point of 169 to 170 °C.

In turn, `CCCNS(=O)(=O)NC(=O)c1ccc2nc(C)n(Cc3ccc(OCC)cc3Cl)c2n1` [Example 10, 3-(2-chloro-4-ethoxybenzyl)-2-methyl-5-((1-propylaminosulfonyl)carbamoyl)-3H-imidazo[4,5-b]pyridine] registered a melting point of 152 to 155 °C.

`CCCCCS(=O)(=O)NC(=O)c1ccc2nc(C)n(Cc3ccc(N(CC)C(=O)OC(C)(C)C)cc3Cl)c2n1` [Example 72, 3-[4-(N-(tert-butoxycarbonyl)-N-ethylamino)-2-chlorobenzyl]-2-methyl-5-(1-pentanesulfonylcarbamoyl)-3H-imidazo[4,5-b]pyridine] displayed a melting point of 131 to 132 °C.

`CCCCCS(=O)(=O)NC(=O)c1cc(C)c2nc(C)n(Cc3ccc(-c4ccco4)cc3Cl)c2n1` [Example 86, 3-[2-chloro-4-(2-furyl)benzyl]-2,7-dimethyl-5-(1-pentanesulfonylcarbamoyl)-3H-imidazo[4,5-b]pyridine] had a melting point of 177 to 178 °C.

`CCCCCS(=O)(=O)NC(=O)c1ccc2nc(C)n(Cc3cnc(Cl)cc3Cl)c2n1` displayed a melting point of 161 to 163 °C.

`CCCCCOc1ccc(Cn2c(C)nc3c(C)cc(C(=O)NS(=O)(=O)CCCCC)nc32)c(Cl)c1` [Example 38, 3-[2-chloro-4-(1-pentyloxy)benzyl]-2,7-dimethyl-5-(1-pentanesulfonylcarbamoyl)-3H-imidazo[4,5-b]pyridine]: the melting point fell in the range of 149 to 150 °C.

In turn, `CCC/C=C/S(=O)(=O)NC(=O)c1ccc2nc(C)n(Cc3ncc(NC(=O)OCC)cc3Cl)c2n1` (as salt: sodium) [Example 133, 3-[(3-chloro-5-(N-(ethoxycarbonyl)amino)pyridin-2-yl)methyl]-2-methyl-5-((E)-1-penten-1-ylsulfonylcarbamoyl)-3H-imidazo[4,5-b]pyridine] came in with a melting point of 236 to 239 °C.

In turn, `CCCCCS(=O)(=O)NC(=O)c1ccc2nc(C)n(Cc3ccc(NC)cc3Cl)c2n1` [Example 42, 3-(2-chloro-4-(methylamino)benzyl)-2-methyl-5-(1-pentanesulfonylcarbamoyl)-3H-imidazo[4,5-b]pyridine] registered a melting point of 185 to 186 °C.

Turning to `CCCCCS(=O)(=O)NC(=O)c1ccc2nc(CC)n(Cc3ccc(OCC4CCCCC4)cc3Cl)c2n1` [Example 68, 3-(2-chloro-4-(cyclohexylmethyloxy)benzyl)-2-ethyl-5-(1-pentanesulfonylcarbamoyl)-3H-imidazo[4,5-b]pyridine], the melting point fell in the range of 137 to 139 °C.

`CCCCS(=O)(=O)NC(=O)c1ccc2nc(C)n(Cc3ccc(OCC4CCCC4)cc3Cl)c2n1` [Example 28, 5-(1-butanesulfonylcarbamoyl)-3-(2-chloro-4-((cyclopentylmethyl)oxy)benzyl)-2-methyl-3H-imidazo[4,5-b]pyridine] registered a melting point of 180 to 181 °C.

Regarding `CCCCS(=O)(=O)NC(=O)c1ccc2nc(CC)n(Cc3ccc(OCC4CCCCC4)cc3Cl)c2n1` [Example 67, 5-(1-butanesulfonylcarbamoyl)-3-(2-chloro-4-(cyclohexylmethyloxy)benzyl)-2-ethyl-3H-imidazo[4,5-b]pyridine], the melting point is 145 to 146 °C.

In the case of `CCCCS(=O)(=O)NC(=O)c1cc(C)c2nc(C)n(Cc3ccc(-c4ccco4)cc3Cl)c2n1` [Example 88, 3-[2-chloro-4-(2-furyl)benzyl]-2,7-dimethyl-5-(1-butanesulfonylcarbamoyl)-3H-imidazo[4,5-b]pyridine], the melting point was in the range of 231 to 233 °C.

In turn, `CCCCCS(=O)(=O)NC(=O)c1ccc2nc(C)n(Cc3ccc(OCC4CCCC4)cc3Cl)c2n1` [Example 27, 3-(2-chloro-4-((cyclopentylmethyl)oxy)benzyl)-2-methyl-5-(1-pentanesulfonylcarbamoyl)-3H-imidazo[4,5-b]pyridine] came in with a melting point of 160 to 161 °C.

As to `CCCCS(=O)(=O)NC(=O)c1ccc2nc(C)n(Cc3ccc(OCCC)cc3Cl)c2n1` [Example 13, 5-(1-butanesulfonylcarbamoyl)-3-(2-chloro-4-(1-propoxy)benzyl)-2-methyl-3H-imidazo[4,5-b]pyridine], the melting point was in the range of 153 to 154 °C.

Molecule `CCCCCOc1ccc(Cn2c(C)nc3ccc(C(=O)NS(=O)(=O)NCCC)nc32)c(Cl)c1` [Example 25, 5-((1-propylaminosulfonyl)carbamoyl)-3-(2-chloro-4-(1-pentyloxy)benzyl)-2-methyl-3H-imidazo[4,5-b]pyridine] came in with a melting point of 155 to 158 °C.

`CCCCCS(=O)(=O)NC(=O)c1cc(C)c2nc(C)n(Cc3ccc(N(CC)C(=O)OC(C)(C)C)cc3Cl)c2n1` [Example 81, 3-[4-(N-(tert-butoxycarbonyl)-N-ethylamino)-2-chlorobenzyl]-2,7-dimethyl-5-(1-pentanesulfonylcarbamoyl)-3H-imidazo[4,5-b]pyridine]: the melting point lay in the range of 190 to 191 °C.

Turning to `CCCCCOc1ccc(Cn2c(C)nc3ccc(C(=O)NS(=O)(=O)NCCCC)nc32)c(Cl)c1` [Example 26, 5-((1-butylaminosulfonyl)carbamoyl)-3-(2-chloro-4-(1-pentyloxy)benzyl)-2-methyl-3H-imidazo[4,5-b]pyridine], the melting point was in the range of 136 to 138 °C.

Molecule `CCCCCS(=O)(=O)NC(=O)c1ccc2nc(C)n(Cc3ccc(N(C)C(=O)OC(C)(C)C)cc3Cl)c2n1` [Example 41, 3-(4-(N-(tert-butoxycarbonyl)-N-methylamino)-2-chlorobenzyl)-2-methyl-5-(1-pentanesulfonylcarbamoyl)-3H-imidazo[4,5-b]pyridine] came in with a melting point of 160 to 161 °C.

Consider `CCCCCOc1ccc(Cn2c(C)nc3ccc(C(=O)NS(=O)(=O)c4ccc(Cl)s4)nc32)c(Cl)c1` [Example 24, 3-[2-chloro-4-(1-pentyloxy)benzyl]-2-methyl-5-[(5-chlorothiophen-2-yl)sulfonylcarbamoyl]-3H-imidazo[4,5-b]pyridine], for which the melting point lay in the range of 154 to 155 °C.

`CCCCOc1ccc(Cn2c(C)nc3ccc(C(=O)NS(=O)(=O)CCCC)nc32)c(Cl)c1` [Example 18, 5-(1-butanesulfonylcarbamoyl)-3-(2-chloro-4-(1-butoxy)benzyl)-2-methyl-3H-imidazo[4,5-b]pyridine] registered a melting point of 144 to 145 °C.

`CCCCS(=O)(=O)NC(=O)c1ccc2nc(C)n(Cc3ccc(OC)cc3Cl)c2n1` [Example 6, 5-(1-butanesulfonylcarbamoyl)-3-(2-chloro-4-methoxybenzyl)-2-methyl-3H-imidazo[4,5-b]pyridine] came in with a melting point of 175 to 177 °C.

For the molecule `CCCCCS(=O)(=O)NC(=O)c1ccc2nc(C)n(Cc3ccc(OC(C)C)cc3Cl)c2n1` [Example 14, 3-(2-chloro-4-isopropoxybenzyl)-2-methyl-5-(1-pentanesulfonylcarbamoyl)-3H-imidazo[4,5-b]pyridine], the melting point fell in the range of 130 to 133 °C.

The molecule `CCCCCS(=O)(=O)NC(=O)c1ccc2nc(C)n(Cc3ccc(N(C)CC)cc3Cl)c2n1` [Example 43, 3-(2-chloro-4-(ethylmethylamino)benzyl)-2-methyl-5-(1-pentanesulfonylcarbamoyl)-3H-imidazo[4,5-b]pyridine] gave a melting point of 148 to 149 °C.

The molecule `CCC/C=C/S(=O)(=O)NC(=O)c1ccc2nc(C)n(Cc3ccc(NC(=O)OC(C)C)cc3Cl)c2n1` [Example 102, 3-(2-chloro-4-(N-(isopropoxycarbonyl)amino)benzyl)-2-methyl-5-((E)-1-penten-1-ylsulfonylcarbamoyl)-3H-imidazo[4,5-b]pyridine] had a melting point of 187 to 189 °C.

Turning to `CCCCCS(=O)(=O)NC(=O)c1ccc2nc(C)n(Cc3ccc(N(C)C(=O)OC(C)C)cc3Cl)c2n1` [Example 96, 3-(2-chloro-4-(N-methyl-N-(isopropoxycarbonyl)amino)benzyl)-2-methyl-5-(1-pentanesulfonylcarbamoyl)-3H-imidazo[4,5-b]pyridine], the melting point was in the range of 151 to 152 °C.

Consider `CCC/C=C/S(=O)(=O)NC(=O)c1ccc2nc(C)n(Cc3ccc(NC(=O)OC(C)(C)C)cc3Cl)c2n1` [Example 112, 3-(4-(N-t-butoxycarbonylamino)-2-chlorobenzyl)-2-methyl-5-((E)-1-penten-1-ylsulfonylcarbamoyl)-3H-imidazo[4,5-b]pyridine], for which the melting point was 215 to 216 °C.

In the case of `CCCCCS(=O)(=O)NC(=O)c1ccc2nc(C)n(Cc3ccc(NC(=O)OC(C)C)cc3Cl)c2n1` [Example 108, 3-(4-(N-(isopropoxycarbonyl)amino)-2-chlorobenzyl)-2-methyl-5-(1-pentanesulfonylcarbamoyl)-3H-imidazo[4,5-b]pyridine], the melting point lay within 198 to 199 °C.

As to `CCCCCS(=O)(=O)NC(=O)c1ccc2nc(C)n(Cc3ncc(C(F)(F)F)cc3Cl)c2n1` [Example 57, 3-[(3-chloro-5-(trifluoromethyl)-2-pyridyl)methyl]-2-methyl-5-(1-pentanesulfonylcarbamoyl)-3H-imidazo[4,5-b]pyridine], the melting point is 169 to 170 °C.
